Data reported in ChEMBL document CHEMBL1143505, “Synthesis and pharmacological investigation of novel 1-substituted-4-phenyl-1,2,4-triazolo[4,3-a]quinazolin-5(4H)-ones as a new class of H1-antihistaminic agents” (2005).

How the values were obtained:
Cavia porcellus [1] = organism: Cavia porcellus; test: Percentage protection of guinea pigs from histamine induced bronchospasm by compound; design: concentration or dose not given beside the values
Cavia porcellus [2] = organism: Cavia porcellus; test: Percentage reduction central nervous system depression in guinea pig by compound

SMILES	Protection (Cavia porcellus [1]) [%]	Depression (Cavia porcellus [2]) [%]
O=c1c2ccccc2n2cnnc2n1-c1ccccc1	69.9	4.2
Cc1nnc2n(-c3ccccc3)c(=O)c3ccccc3n12	70.7	4.8
O=c1c2ccccc2n2c(CCl)nnc2n1-c1ccccc1	68.7	3.7
CCCc1nnc2n(-c3ccccc3)c(=O)c3ccccc3n12	69.2	7.3
CCc1nnc2n(-c3ccccc3)c(=O)c3ccccc3n12	70	5.3
O=C(O)COCCN1CCN(C(c2ccccc2)c2ccc(Cl)cc2)CC1 (centres undefined) [CETIRIZINE]	78.9	8.5
CN(C)CCC(c1ccc(Cl)cc1)c1ccccn1.O=C(O)/C=C\C(=O)O (centres undefined) [CHLORPHENIRAMINE MALEATE]	71	26
